# What was measured:
# Type in all cases: in vivo
# [1] = test system: barnyardgrass (Echinochloa crus-galli); assay: Test B flooded paddy test; settings: for Plant response rating, Flood, Barnyardgrass: 250 g ai/ha, flooded paddy test, visual rating on 0 to 100 scale (0 no effect, 100 complete control) after 13 to 15 days; for Plant response rating, Barnyardgrass: Flood (flooded paddy test), 13 to 15 days
# Outline: (§1)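 Visual scores run from 0 (no effect) to 100 (complete control), assigned by comparison with controls 13 to 15 days after treatment. Test compounds went straight into water standing 3 cm above the soil, around plants at the 2-leaf stage kept in a greenhouse.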
# [2] = test system: ducksalad (Heteranthera limosa); assay: Test B flooded paddy test; settings: for Plant response rating, Flood, Ducksalad: 250 g ai/ha, flooded paddy test, visual rating on 0 to 100 scale (0 no effect, 100 complete control) after 13 to 15 days; for Plant response rating, Ducksalad: Flood (flooded paddy test), 13 to 15 days
# Outline: as §1
# rice (Oryza sativa) = assay: Test B flooded paddy test; settings: for Plant response rating, Flood, Rice: 250 g ai/ha, flooded paddy test, visual rating on 0 to 100 scale (0 no effect, 100 complete control) after 13 to 15 days; for Plant response rating, Rice: Flood (flooded paddy test), 13 to 15 days
# Outline: as §1
# [3] = test system: umbrella sedge (Cyperus difformis); assay: Test B flooded paddy test; settings: for Plant response rating, Flood, Sedge, Umbrella: 250 g ai/ha, flooded paddy test, visual rating on 0 to 100 scale (0 no effect, 100 complete control) after 13 to 15 days; for Plant response rating, Sedge, Umbrella: Flood (flooded paddy test), 13 to 15 days
# Outline: as §1
# [4] = test system: Italian ryegrass (Lolium multiflorum); assay: Test B pre-/postemergence plant response; settings: for Ryegrass, Italian plant response rating (0 to 100 scale): 62 g ai/ha, postemergence, 0 is no effect, 100 is complete control, 13 to 15 days; for Plant response rating, Ryegrass, Italian: Postemergence
# Outline: (§2)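 Response scores were assigned visually after 13 to 15 days in a greenhouse, comparing treated pots with controls on a 0–100 scale where 100 denotes complete control. Preemergence treatments went onto freshly seeded loam/sand soil; postemergence treatments onto plants 2 to 18 cm tall.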
# [5] = test system: Surinam grass (Brachiaria decumbens); assay: Test B pre-/postemergence plant response; settings: for Surinam Grass plant response rating (0 to 100 scale): 62 g ai/ha, postemergence, 0 is no effect, 100 is complete control, 13 to 15 days; for Plant response rating, Surinam Grass: Postemergence
# Outline: as §2
# corn (Zea mays) = assay: Test B pre-/postemergence plant response; settings: for Corn plant response rating (0 to 100 scale): 62 g ai/ha, 0 is no effect, 13 to 15 days
# Outline: as §2
# [6] = test system: cocklebur (Xanthium strumarium); assay: Test B pre-/postemergence plant response; settings: for Cocklebur plant response rating (0 to 100 scale): 62 g ai/ha, 0 is no effect, 13 to 15 days
# Outline: as §2
# soybean (Glycine max) = assay: Test B pre-/postemergence plant response; settings: for Soybean plant response rating (0 to 100 scale): 62 g ai/ha, postemergence, 0 is no effect, 100 is complete control, 13 to 15 days; for Plant response rating, Soybean: Postemergence
# Outline: as §2
# [7] = test system: morningglory (Ipomoea coccinea); assay: Test B pre-/postemergence plant response; settings: for Morningglory plant response rating (0 to 100 scale): 62 g ai/ha, 0 is no effect, 13 to 15 days
# Outline: as §2
# [8] = test system: ragweed (common ragweed, Ambrosia elatior); assay: Test B pre-/postemergence plant response; settings: for Ragweed plant response rating (0 to 100 scale): 62 g ai/ha, postemergence, 0 is no effect, 100 is complete control, 13 to 15 days; for Plant response rating, Ragweed: Postemergence
# Outline: as §2
# [9] = test system: bermudagrass (Cynodon dactylon); assay: Test B pre-/postemergence plant response; settings: for Bermudagrass plant response rating (0 to 100 scale): 62 g ai/ha, 0 is no effect, 13 to 15 days
# Outline: as §2
# [10] = test system: blackgrass (Alopecurus myosuroides); assay: Test B pre-/postemergence plant response; settings: for Blackgrass plant response rating (0 to 100 scale): 62 g ai/ha, 0 is no effect, 13 to 15 days
# Outline: as §2
# [11] = 62 g ai/ha, scale of 0 to 100 where 0 is no effect and 100 is complete control
# [12] = 125 g ai/ha, scale 0 to 100 (0 no effect, 100 complete control)
# [13] = 250 g ai/ha, scale 0 to 100 (0 no effect, 100 complete control)
# [14] = 31 g ai/ha, postemergence, scale 0 to 100, 0 is no effect, 100 is complete control
# [15] = postemergence, 100 is complete control
# [16] = Postemergence, 125 g ai/ha, scale 0 to 100 (0 no effect, 100 complete control)
# [17] = Postemergence, 250 g ai/ha, scale 0 to 100 (0 no effect, 100 complete control)
# [18] = 125 g ai/ha, scale 0 to 100, 0 is no effect, 100 is complete control
# [19] = Flood, 31 g ai/ha, scale 0 to 100 (0 no effect, 100 complete control)
# [20] = 31 g ai/ha, 0 to 100 scale (0 no effect, 100 complete control)
# [21] = Postemergence, 31 g ai/ha, 0 to 100 scale (0 no effect, 100 complete control)
smiles,measurement,setting,value
CCCCn1c(-c2cc(F)cc(F)c2)ncc(C(=O)C2=C(O)CCCC2=O)c1=O [Compound 121],"Plant response rating, Flood, Barnyardgrass",[1],70
same,"Plant response rating, Barnyardgrass",[1]; [11],30
same,"Plant response rating, Flood, Ducksalad",[2],80
same,"Plant response rating, Ducksalad",[2]; [11],45
same,"Plant response rating, Flood, Rice",rice (Oryza sativa),55
same,"Plant response rating, Rice",rice (Oryza sativa); [11],0
same,"Plant response rating, Flood, Sedge, Umbrella",[3],70
same,"Plant response rating, Sedge, Umbrella",[3]; [11],30
same,"Ryegrass, Italian plant response rating (0 to 100 scale)",[4],40
same,"Plant response rating, Ryegrass, Italian",[4]; [12],70
same,"Plant response rating, Ryegrass, Italian",[4]; [13],75
same,Surinam Grass plant response rating (0 to 100 scale),[5],100
same,"Plant response rating, Surinam Grass",[5]; [12],100
same,"Plant response rating, Surinam Grass",[5]; [13],100
same,"Plant response rating, Corn",corn (Zea mays); [14],25
same,Corn plant response rating (0 to 100 scale),corn (Zea mays); [15],55
same,"Plant response rating, Corn",corn (Zea mays); [16],55
same,"Plant response rating, Corn",corn (Zea mays); [17],85
same,"Plant response rating, Cocklebur",[6]; [14],40
same,Cocklebur plant response rating (0 to 100 scale),[6]; [15],45
same,"Plant response rating, Cocklebur",[6]; [16],85
same,"Plant response rating, Cocklebur",[6]; [17],100
same,Soybean plant response rating (0 to 100 scale),soybean (Glycine max),90
same,"Plant response rating, Soybean",soybean (Glycine max); [12],95
same,"Plant response rating, Soybean",soybean (Glycine max); [13],100
same,"Plant response rating, Morningglory",[7]; [14],5
same,Morningglory plant response rating (0 to 100 scale),[7]; [15],20
same,"Plant response rating, Morningglory",[7]; [16],25
same,"Plant response rating, Morningglory",[7]; [17],45
same,Ragweed plant response rating (0 to 100 scale),[8],85
same,"Plant response rating, Ragweed",[8]; [12],90
same,"Plant response rating, Ragweed",[8]; [13],95
same,"Plant response rating, Bermudagrass",[9]; [14],95
same,Bermudagrass plant response rating (0 to 100 scale),[9]; [15],98
same,"Plant response rating, Bermudagrass",[9]; [16],100
same,"Plant response rating, Bermudagrass",[9]; [17],100
same,"Plant response rating, Blackgrass",[10]; [14],5
same,Blackgrass plant response rating (0 to 100 scale),[10]; [15],40
same,"Plant response rating, Blackgrass",[10]; [16],40
same,"Plant response rating, Blackgrass",[10]; [17],60
COCCn1c(-c2cccc(F)c2)ncc(C(=O)C2=C(O)CCCC2=O)c1=O [Compound 123],"Plant response rating, Flood, Barnyardgrass",[1],70
same,"Plant response rating, Barnyardgrass",[1]; [11],40
same,"Plant response rating, Barnyardgrass",[1]; [18],55
same,Barnyardgrass plant response rating,[1]; [19],30
same,"Plant response rating, Flood, Ducksalad",[2],95
same,"Plant response rating, Ducksalad",[2]; [11],80
same,"Plant response rating, Ducksalad",[2]; [18],90
same,Ducksalad plant response rating,[2]; [19],30
same,"Plant response rating, Flood, Rice",rice (Oryza sativa),40
same,"Plant response rating, Rice",rice (Oryza sativa); [11],20
same,"Plant response rating, Rice",rice (Oryza sativa); [18],30
same,Rice plant response rating,rice (Oryza sativa); [19],0
same,"Plant response rating, Flood, Sedge, Umbrella",[3],85
same,"Plant response rating, Sedge, Umbrella",[3]; [11],70
same,"Plant response rating, Sedge, Umbrella",[3]; [18],75
same,"Sedge, Umbrella plant response rating",[3]; [19],40
same,"Ryegrass, Italian plant response rating (0 to 100 scale)",[4],5
same,"Plant response rating, Ryegrass, Italian",[4]; [20],0
same,"Plant response rating, Ryegrass, Italian",[4]; [12],5
same,"Plant response rating, Ryegrass, Italian",[4]; [13],50
same,Surinam Grass plant response rating (0 to 100 scale),[5],75
same,"Plant response rating, Surinam Grass",[5]; [20],25
same,"Plant response rating, Surinam Grass",[5]; [12],85
same,"Plant response rating, Surinam Grass",[5]; [13],85
same,Corn plant response rating (0 to 100 scale),corn (Zea mays); [15],70
same,"Plant response rating, Corn",corn (Zea mays); [21],35
same,"Plant response rating, Corn",corn (Zea mays); [16],75
same,"Plant response rating, Corn",corn (Zea mays); [17],80
same,Cocklebur plant response rating (0 to 100 scale),[6]; [15],80
same,"Plant response rating, Cocklebur",[6]; [21],65
same,"Plant response rating, Cocklebur",[6]; [16],100
same,"Plant response rating, Cocklebur",[6]; [17],100
same,Soybean plant response rating (0 to 100 scale),soybean (Glycine max),75
same,"Plant response rating, Soybean",soybean (Glycine max); [20],60
same,"Plant response rating, Soybean",soybean (Glycine max); [12],85
same,"Plant response rating, Soybean",soybean (Glycine max); [13],90
same,Morningglory plant response rating (0 to 100 scale),[7]; [15],98
same,"Plant response rating, Morningglory",[7]; [21],70
same,"Plant response rating, Morningglory",[7]; [16],100
same,"Plant response rating, Morningglory",[7]; [17],100
same,Ragweed plant response rating (0 to 100 scale),[8],85
same,"Plant response rating, Ragweed",[8]; [20],70
same,"Plant response rating, Ragweed",[8]; [12],95
same,"Plant response rating, Ragweed",[8]; [13],98
same,Bermudagrass plant response rating (0 to 100 scale),[9]; [15],85
same,"Plant response rating, Bermudagrass",[9]; [21],80
same,"Plant response rating, Bermudagrass",[9]; [16],90
same,"Plant response rating, Bermudagrass",[9]; [17],98
same,Blackgrass plant response rating (0 to 100 scale),[10]; [15],20
same,"Plant response rating, Blackgrass",[10]; [21],20
same,"Plant response rating, Blackgrass",[10]; [16],40
same,"Plant response rating, Blackgrass",[10]; [17],80

# Reference: patent US8952024B2, “Herbicidal pyrimidone derivatives” (E I du Pont de Nemours and Company, priority 2009, dated 2015)
